Assays:
Type in all cases: physicochemical
[1] = Thermal stability of crystal form
Protocol: Melting points were performed either on a Thomas Hoover melting point apparatus or a Mettler FP900 Thermosystem melting point apparatus. Melting ranges were determined by differential scanning calorimetry on a TA Instruments Differential Scanning Calorimeter (Model 2100 controller, Model 912 dual calorimeter). The sample (1-2 mg) was placed in an unsealed aluminum pan and heated at 10° C./minute.

[2] = Stability after mechanical grinding (milling)
[3] = Stability of crystalline form compared with the earlier form; conditions: compared with earlier material Form A

Compound	thermal stability [1]	stability after mechanical grinding (milling) [2]	stability relative to Form A [3]
Cc1onc(-c2ccccc2)c1-c1ccc(S(N)(=O)=O)cc1 [Form A, 4-[5-methyl-3-phenylisoxazol-4-yl]benzenesulfonamide]	thermally unstable	unstable	
Cc1onc(-c2ccccc2)c1-c1ccc(S(N)(=O)=O)cc1 [Form B, 4-[5-methyl-3-phenylisoxazol-4-yl]benzenesulfonamide]			more stable

— patent publication US7135489B2, “Crystalline form of 4-[5-methyl-3-phenylisoxazol-4-yl] benzenesulfonamide” (G. D. Searle & Co., priority 1996, dated 2006)
